Assay results as given in patent US6156899A, “N-aryl-2-hydroxyalkylamido compositions for inducing/stimulating hair growth and/or retarding hair loss and/or for treating hyperseborrhea and/or acne” (Societe L'Oreal S.A., priority 1997, dated 2000).
Like-named read-outs stand apart in the source and are kept apart here.

How the values were obtained:
[1] = test system: rings of the thoracic region of the aorta (aortic smooth muscles); experiment: Potassium channel opener activity: in vitro relaxant power on rings of the thoracic region of the aorta contracted with KCl; format: cell-based; conditions: for IC50: read-out: Inhibition contraction isolated aorta induced by K+: IC50; for mixed activity (potassium channel opener/antiandrogen): conclusion from Tables I and II
Description: Measurement of the Activity of "Potassium Channel Opener" Type of the Ethyl Ester of (4-Cyano-3-(trifluoromethyl)phenyl)(3,3,3-trifluoro-2-hydroxy-2-methylpropionyl)carbamic Acid (Example 1) and of (4-cyano-3-(trifluoromethyl)phenyl)(3,3,3-trifluoro-2-hydroxy-2-methylpropionyl)carbamic Acid (Example 2) by the in Vitro Measurement of the Relaxant Power of the Molecules on Rings of the Thoracic Region of the Aorta (IC50):
The experiments were carried out according to the techniques of Newgreen et al. (Br. J. Pharmacol., 100, p. 605-613 (1990)), Bray et al. (Arch. Pharmacol., 344, p. 351-359 (1991)) and Wickerden et al. (Br. J. Pharmacol., 103, 1148-1152 (1991)).
After they had been mounted into the isolated organ vessels, the tissues (aortic smooth muscles) were subjected to an initial tension of 2 g.
After an equilibration period, the tissues were exposed to a potassium chloride solution (20 mM KCl), in order to obtain a sustained contractile response.
After stabilization of this contractile response, the relaxant activity (of potassium channel opener type) of the test molecules was evaluated as a function of the concentration applied.
During the experimentation, two reference molecules were employed: cromakalim and minoxidil.

[2] = biological target: T1, androgen receptor (Rattus norvegicus, UniProt P15207); experiment: Affinity (IC50) for the androgen receptor: inhibition of the binding of testosterone (Schilling and Liao technique)
T1 sequence (P15207 1-902): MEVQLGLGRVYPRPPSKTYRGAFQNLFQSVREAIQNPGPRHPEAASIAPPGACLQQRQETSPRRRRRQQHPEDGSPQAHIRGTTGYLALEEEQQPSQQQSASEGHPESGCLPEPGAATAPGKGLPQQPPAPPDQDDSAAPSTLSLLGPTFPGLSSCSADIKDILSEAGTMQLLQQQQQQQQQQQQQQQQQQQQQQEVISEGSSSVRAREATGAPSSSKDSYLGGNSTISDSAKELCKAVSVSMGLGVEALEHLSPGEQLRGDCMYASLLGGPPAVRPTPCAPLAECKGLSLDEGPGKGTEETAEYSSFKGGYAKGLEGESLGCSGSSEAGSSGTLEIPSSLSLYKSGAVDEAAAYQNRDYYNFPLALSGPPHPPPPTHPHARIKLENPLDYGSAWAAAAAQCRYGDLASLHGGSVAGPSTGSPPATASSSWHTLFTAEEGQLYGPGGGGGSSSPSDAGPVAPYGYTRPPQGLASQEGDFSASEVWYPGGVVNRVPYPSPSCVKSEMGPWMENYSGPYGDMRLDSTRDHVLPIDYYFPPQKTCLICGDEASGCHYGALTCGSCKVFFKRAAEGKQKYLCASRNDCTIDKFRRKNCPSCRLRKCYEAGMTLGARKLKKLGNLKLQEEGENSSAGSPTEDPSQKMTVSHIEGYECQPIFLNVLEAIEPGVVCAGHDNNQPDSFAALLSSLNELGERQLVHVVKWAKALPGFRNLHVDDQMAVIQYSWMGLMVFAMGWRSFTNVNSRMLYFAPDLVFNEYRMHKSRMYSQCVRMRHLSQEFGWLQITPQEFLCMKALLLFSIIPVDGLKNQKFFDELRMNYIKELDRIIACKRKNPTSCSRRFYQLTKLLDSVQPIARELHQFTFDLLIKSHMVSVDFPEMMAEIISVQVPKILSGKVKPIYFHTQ
Description: Measurement of the Affinity (IC50) of the Ethyl Ester of (4-Cyano-3-(trifluoromethyl)phenyl)(3,3,3-trifluoro-2-hydroxy-2-methylpropionyl)carbamic Acid (Example 1) and of (4-Cyano-3-(trifluoromethyl)phenyl)(3,3,3-trifluoro-2-hydroxy-2-methylpropionyl)carbamic Acid (Example 2) for the Androgen Receptor:
These measurements of receptor affinity for the androgen receptor were carried out according to the technique of Schilling and Liao, described in The Prostate, 5, p. 581-588 (1984).
During the experimentation, the reference molecule (mibolerone) was tested in parallel at 8 concentrations, in order to validate the experiment.

[3] = 20 mM KCl, thoracic aorta rings, initial tension 2 g

IC50 [1, 3] [nM]	SMILES	IC50 [2] [nM]	mixed activity (potassium channel opener/antiandrogen) [1]	IC50 [1] [nM]
~1000	CC1(C)Oc2ccc(C#N)cc2C(N2CCCC2=O)C1O (centres unmarked) [cromakalim, reference compound]	–	–	–
–	CC(O)(C(=O)N(C(=O)O)c1ccc(C#N)c(C(F)(F)F)c1)C(F)(F)F (centres unmarked) [Example 2, (4-Cyano-3-(trifluoromethyl)phenyl)(3,3,3-trifluoro-2-hydroxy-2-methylpropionyl)carbamic Acid]	4000	mixed activity	3000
–	CCOC(=O)N(C(=O)C(C)(O)C(F)(F)F)c1ccc(C#N)c(C(F)(F)F)c1 (centres unmarked) [Example 1, Ethyl Ester of (4-Cyano-3-(trifluoromethyl)phenyl)(3,3,3-trifluoro-2-hydroxy-2-methylpropionyl)carbamic Acid]	2000	mixed activity	2000
~1000	Nc1cc(N2CCCCC2)nc(N)[n+]1[O-] [minoxidil, 2,4-diamino-6-piperidinopyrimidine 3-oxide, reference compound]	–	–	–
